Laboratory results published in patent US6849601B1 (priority 1998, dated 2005).
Where a name gives a salt, the structure may show the parent alone.

Key:
[1] = test system: bisected rat prostatic vas deferens
[2] = test system: β1-adrenoceptor
[3] = test system: α2-adrenoceptors; design: species or system rat

For COc1cc2nc(N3CCN(C(=O)c4ccco4)CC3)nc(N)c2cc1OC [prazosin, prazosin hydrochloride], the “effect on second phase of the contraction” value [1] was “inhibited”.
In the case of CCLIPACRRNHKKFC [truncated ρ-TIA], the “selective β1-adrenoceptor antagonist activity” value [2] is reported as “inactive”.
With NC[C@H](O)c1ccc(O)c(O)c1 [noradrenaline, (−)-noradrenaline bitartrate] the “−log IC50 of noradrenaline for inhibition of the response to electrical stimulation” value [3] was 5.96±0.052.
For NC1=N[C@H](O)[C@H]2[C@H]3O[C@]4(O)O[C@@H]([C@@H](O)[C@@]2(N1)[C@@H]4O)[C@]3(O)CO [tetrodotoxin], the “effect on contractions evoked by field stimulation” value [1] was “abolished”.
In the case of Cc1ccc(C(=O)Nc2ccc(S(=O)(=O)O)c3cc(S(=O)(=O)O)cc(S(=O)(=O)O)c23)cc1NC(=O)c1cccc(NC(=O)Nc2cccc(C(=O)Nc3cc(C(=O)Nc4ccc(S(=O)(=O)O)c5cc(S(=O)(=O)O)cc(S(=O)(=O)O)c45)ccc3C)c2)c1 [suramin], the “effect on initial phase of the contraction” value ([1]; 0.3 mM) is reported as “sensitive”.
